Square brackets hold non-standard residues; d marks the D form. Primed or numbered codes have the meaning given here. Ends that are not written are not given here. PEG12′ = not defined here; Nle = CCCC[C@H](N)C(=O)O
Assays:
[1] = system: established lung fibrosis induced by bleomycin in male C57BL/6 mice; experiment: Therapeutic mouse model of idiopathic pulmonary fibrosis, peptide combined with nintedanib (Example 1); assay type: in vivo; settings: peptide 5 mg/kg/day IP; for Mean Pro-inflammatory Cytokine Level IFNγ / Mean Pro-inflammatory Cytokine Level IL-1β / Mean Pro-inflammatory Cytokine Level IL-6 / Mean Pro-inflammatory Cytokine Level KC/GRO / Mean Pro-inflammatory Cytokine Level MCP-1 / Mean Pro-inflammatory Cytokine Level MIP-1α / Mean Pro-inflammatory Cytokine Level TNFα: BALF, MSD; for Mean Pro-inflammatory Cytokine Level IFNγ / Mean Pro-inflammatory Cytokine Level IL-1β / Mean Pro-inflammatory Cytokine Level IL-6 / Mean Pro-inflammatory Cytokine Level KC/GRO / Mean Pro-inflammatory Cytokine Level MCP-1 / Mean Pro-inflammatory Cytokine Level MIP-1α / Mean Pro-inflammatory Cytokine Level TNFα / Mean (SEM) Number of Lymphocytes in BALF / Mean (SEM) Number of Macrophages in BALF / Mean (SEM) Number of Neutrophils in BALF: Day 21, nintedanib 60 mg/kg/day PO; for Mean (SEM) Normalized Lung Weight / Mean (SEM) Ashcroft Score / Mean (SEM) Collagen Deposition Score in Lung Tissue / Mean (SEM) Soluble Collagen Content in BALF: Day 21 after 14 days of daily treatment, nintedanib 60 mg/kg/day PO; for Mean (SEM) Ashcroft Score: H&E; for Mean (SEM) Collagen Deposition Score in Lung Tissue: Masson's Trichrome; for Mean (SEM) Soluble Collagen Content in BALF: Sircol assay
Method: The effect of combining the peptides of Formula I with a second antifibrotic drug on the progression of established lung fibrosis were assessed by monitoring lung fibrosis, lung weight, inflammatory cells in bronchoalveolar lavage fluid (BALF), soluble collagen in BALF, cytokine secretion, and body weight change in a therapeutic mouse model of idiopathic pulmonary fibrosis. Lung fibrosis was induced in lungs of male C57BL/6 mice between the ages of 6 to 8 weeks by nasophayngeal administration of bleomycin (1.5U/kg using bleomycin clinical formulation diluted in PBS). A control group of animals were administered saline by the nasopharyngeal route (no-bleomycin control group). After one week, bleomycin-treated animals were randomized to treatment groups (N=10 per group) by body weight and treated daily with vehicle control, nintedanib (60 mg/kg/day PO), peptide (5 mg/kg/day by intraperitoneal injection), or the combination of nintedanib (60 mg/kg/day PO) and peptide (5 mg/kg/day by intraperitoneal injection). After 14 days of treatment (Day 21), lungs were removed and weighed. The post-caval lobe was separated and snap frozen. The lungs were flushed with Hanks Buffer and bronchoalveolar lavage fluid (BALF) was harvested from each animal Differential cell counts in BALF were obtained. Levels of pro-inflammatory cytokines in BALF were determined using a meso scale discovery (MSD) system. Slides were prepared from the remaining BALF leukocytes, fixed and stained with May Geimsa stain and the differential counts were recorded manually. BALF was evaluated for soluble collagen using a Sircol assay. Lungs were fixed in 10% neutral buffered formalin (NBF) for histopathological analysis. Fibrosis was assessed by histopathological analysis of H&E stained mouse lungs using an Ashcroft scoring system. Collagen deposition in lung tissue was assessed by histopathological analysis of Masson's Trichrome stained mouse lungs using a standard scoring system for severity.

[2] = system: established lung fibrosis induced by bleomycin in male C57BL/6 mice; experiment: Therapeutic mouse model of idiopathic pulmonary fibrosis, peptides alone (Example 2); assay type: in vivo
Method: The effect of the peptides on the progression of established lung fibrosis were assessed by monitoring lung fibrosis, lung weight, inflammatory cells in bronchoalveolar lavage fluid (BALF), soluble collagen in BALF, cytokine secretion in BALF, and body weight change in a therapeutic mouse model of idiopathic pulmonary fibrosis. Lung fibrosis was induced in lungs of male C57BL/6 mice between the ages of 6 to 8 weeks by nasophayngeal administration of bleomycin (1.5 U/kg using bleomycin clinical formulation diluted in PBS). A control group of animals were administered saline by the nasopharyngeal route (no-bleomycin control group). After one week, bleomycin-treated animals were randomized to treatment groups (N=10 per group) by body weight and treated daily with vehicle control, nintedanib positive control (60 mg/kg/day PO) or peptide (5 or 15 mg/kg/day by intraperitoneal injection). After 14 days of treatment (Day 21), lungs were removed and weighed. The post-caval lobe was separated and snap frozen. The lungs were flushed with Hanks Buffer and bronchoalveolar lavage fluid (BALF) was harvested from each animal Total BALF leukocyte were counted. Slides were prepared from the remaining BALF leukocytes, fixed and stained with May Geimsa stain and the differential counts were recorded manually. BALF was evaluated for soluble collagen using a Sircol assay. Lungs were fixed in 10% neutral buffered formalin (NBF) for histopathological analysis. Fibrosis was assessed by histopathological analysis of H&E stained mouse lungs using an Ashcroft scoring system. Collagen deposition in lung tissue was assessed by histopathological analysis of Masson's Trichrome stained mouse lungs using a standard scoring system for severity.

Question: Which “Mean Pro-inflammatory Cytokine Level IFNγ” value [1] does the source give for `COC(=O)c1ccc2c(c1)NC(=O)/C2=C(\Nc1ccc(N(C)C(=O)CN2CCN(C)CC2)cc1)c1ccccc1` [Nintedanib, nintedanib, reference compound] here?
Answer: 0.019 pg/mL

Question: And the “Mean Pro-inflammatory Cytokine Level IL-1β” value [1]?
Answer: 0.50 pg/mL

Question: And the “Mean Pro-inflammatory Cytokine Level IL-6” value [1]?
Answer: 384 pg/mL

Question: What about the “Mean Pro-inflammatory Cytokine Level KC/GRO” value [1] of the same compound?
Answer: 29.3 pg/mL

Question: And the “Mean Pro-inflammatory Cytokine Level MCP-1” value [1]?
Answer: 35.8 pg/mL

Question: And the “Mean Pro-inflammatory Cytokine Level MIP-1α” value [1]?
Answer: 1.05 pg/mL

Question: What about the “Mean Pro-inflammatory Cytokine Level TNFα” value [1] of the same compound?
Answer: 2.76 pg/mL

Question: What about the “Mean (SEM) Number of Lymphocytes in BALF” value [1] of the same compound?
Answer: 18700 (5200)

Question: And the “Mean (SEM) Number of Macrophages in BALF” value [1]?
Answer: 49200 (6450)

Question: And the “Mean (SEM) Number of Neutrophils in BALF” value [1]?
Answer: 3040 (1370)

Question: What about the “Mean (SEM) Normalized Lung Weight” value [1] of the same compound?
Answer: 1.49 (0.17)

Question: What about the “Mean (SEM) Ashcroft Score” value [1] of the same compound?
Answer: 2.82 (0.39)

Question: What about the “Mean (SEM) Collagen Deposition Score in Lung Tissue” value [1] of the same compound?
Answer: 2.22 (0.43)

Question: And the “Mean (SEM) Soluble Collagen Content in BALF” value [1]?
Answer: 0.048 (0.005) mg/mL

Question: And the “Mean (SEM) Ashcroft Score” value ([2]; Day 21, 60 mg/kg/day PO)?
Answer: 2.35 (0.38)

Question: And the “Mean (SEM) Collagen Content in BALF” value ([2]; Day 21, 60 mg/kg/day PO)?
Answer: 0.061 (0.011) mg/mL

Question: What about the “Mean (SEM) Collagen Deposition Score in Lung Tissue” value ([2]; Day 21, 60 mg/kg/day PO) of the same compound?
Answer: 2.20 (0.36)

Question: What about the “Mean (SEM) Normalized Lung Weight” value ([2]; Day 21, 60 mg/kg/day PO) of the same compound?
Answer: 1.16 (0.07)

Question: And the “Mean (SEM) Number of Lymphocytes in BALF” value ([2]; Day 21, 60 mg/kg/day PO)?
Answer: 1180 (631)

Question: And the “Mean (SEM) Number of Macrophages in BALF” value ([2]; Day 21, 60 mg/kg/day PO)?
Answer: 5030 (823)

Question: And the “Mean (SEM) Number of Neutrophils in BALF” value ([2]; Day 21, 60 mg/kg/day PO)?
Answer: 201 (77)

Question: For “RVIR(Nle)CLGVGLLGDL(dA)GK{PEG12} (RVIR[Nle]CLGVGLLGDL[dA]GK(PEG12′); also: homodimer, disulfide at Cys6) [SEQ ID NO: 32]”, which “Mean Pro-inflammatory Cytokine Level IFNγ” value [1] is on record?
Answer: 0.020 pg/mL

Question: What about the “Mean Pro-inflammatory Cytokine Level IL-1β” value [1] of the same compound?
Answer: 0.07 pg/mL

Question: And the “Mean Pro-inflammatory Cytokine Level IL-6” value [1]?
Answer: 269 pg/mL

Question: What about the “Mean Pro-inflammatory Cytokine Level KC/GRO” value [1] of the same compound?
Answer: 21.5 pg/mL

Question: What about the “Mean Pro-inflammatory Cytokine Level MCP-1” value [1] of the same compound?
Answer: 29.7 pg/mL

Question: And the “Mean Pro-inflammatory Cytokine Level MIP-1α” value [1]?
Answer: 0.95 pg/mL

Question: And the “Mean Pro-inflammatory Cytokine Level TNFα” value [1]?
Answer: 3.05 pg/mL

Question: What about the “Mean (SEM) Number of Lymphocytes in BALF” value [1] of the same compound?
Answer: 28600 (5480)

Question: And the “Mean (SEM) Number of Macrophages in BALF” value [1]?
Answer: 86600 (7070)

Question: What about the “Mean (SEM) Number of Neutrophils in BALF” value [1] of the same compound?
Answer: 5850 (2220)

Question: And the “Mean (SEM) Normalized Lung Weight” value [1]?
Answer: 1.57 (0.20)

Question: What about the “Mean (SEM) Ashcroft Score” value [1] of the same compound?
Answer: 3.12 (0.45)

Question: What about the “Mean (SEM) Collagen Deposition Score in Lung Tissue” value [1] of the same compound?
Answer: 2.56 (0.48)

Question: What about the “Mean (SEM) Soluble Collagen Content in BALF” value [1] of the same compound?
Answer: 0.058 (0.005) mg/mL

Question: And the “Mean (SEM) Ashcroft Score” value ([2]; Day 21, 5 mg/kg/day IP)?
Answer: 2.26 (0.27)

Question: And the “Mean (SEM) Collagen Content in BALF” value ([2]; Day 21, 5 mg/kg/day IP)?
Answer: 0.074 (0.019) mg/mL

Question: What about the “Mean (SEM) Collagen Deposition Score in Lung Tissue” value ([2]; Day 21, 5 mg/kg/day IP) of the same compound?
Answer: 2.20 (0.25)

Question: And the “Mean (SEM) Normalized Lung Weight” value ([2]; Day 21, 5 mg/kg/day IP)?
Answer: 1.17 (0.03)

Question: And the “Mean (SEM) Number of Lymphocytes in BALF” value ([2]; Day 21, 5 mg/kg/day IP)?
Answer: 946 (579)

Question: And the “Mean (SEM) Number of Macrophages in BALF” value ([2]; Day 21, 5 mg/kg/day IP)?
Answer: 5530 (1090)

Question: And the “Mean (SEM) Number of Neutrophils in BALF” value ([2]; Day 21, 5 mg/kg/day IP)?
Answer: 61 (61)

Question: And the “Mean (SEM) Ashcroft Score” value ([2]; Day 21, 15 mg/kg/day IP)?
Answer: 2.26 (0.35)

Question: And the “Mean (SEM) Collagen Content in BALF” value ([2]; Day 21, 15 mg/kg/day IP)?
Answer: 0.091 (0.016) mg/mL

Question: What about the “Mean (SEM) Collagen Deposition Score in Lung Tissue” value ([2]; Day 21, 15 mg/kg/day IP) of the same compound?
Answer: 2.10 (0.35)

Question: What about the “Mean (SEM) Normalized Lung Weight” value ([2]; Day 21, 15 mg/kg/day IP) of the same compound?
Answer: 1.20 (0.05)

Question: What about the “Mean (SEM) Number of Lymphocytes in BALF” value ([2]; Day 21, 15 mg/kg/day IP) of the same compound?
Answer: 1270 (584)

Question: What about the “Mean (SEM) Number of Macrophages in BALF” value ([2]; Day 21, 15 mg/kg/day IP) of the same compound?
Answer: 5030 (974)

Question: And the “Mean (SEM) Number of Neutrophils in BALF” value ([2]; Day 21, 15 mg/kg/day IP)?
Answer: 96 (64)
